# In patent publication US8906908B2, “Hydroxybupropion analogues for treating drug dependence” (priority 2010, dated 2014):
# Read-outs that look alike come from different tables or passages of the source.
# What was measured:
# α4β4-nAChR = target: T1, α4β4-nAChR (Homo sapiens, UniProt P30926+P43681); assay: 86Rb+ efflux nAChR functional assay, SH-EP1-hα4β4 cells; assay type: cell-based; settings: EC80-EC90 carbamylcholine, parentheses = S.E.M. as multiplication/division factor, read-out: nAChR inhibition IC50 α4β4
# T1 construct: expressed in transfected cells; host or cells: SH-EP1 epithelial cells (SH-EP1-hα4β4)
# Text: (§1) Cell Lines and Culture: Human embryonic kidney (HEK-293) cells stably expressing human DAT, NET or SERT were maintained as previously described in Eshleman, A. J.; Carmolli, M.; Cumbay, M.; Martens, C. R.; Neve, K. A.; Janowsky, A., J. Pharmacol. Exp. Ther. 1999, 289, (2), 877-885. Use was made of several human cell lines that naturally or heterologously express specific, functional, human nAChR subtypes. Cells of the TE671/RD line naturally expresses muscle-type nAChR (a1β1γδ- or α1*-nAChR), and SH-SY5Y neuroblastoma cells naturally expresses autonomic α3β4*-nAChRs (containing α3, β4, probably α5, and sometimes β2 subunits). Different clones of SH-EP1 epithelial cell lines have been engineered to heterologously express either α4β2-nAChR, which are thought to be the most abundant, high affinity nicotine-binding nAChR in mammalian brain, or α4β4-nAChR, another possible brain nAChR subtype (SH-EP1-hα4β2 or α4β4 cells, respectively). These cells were maintained as low passage number (1-26 from our frozen stocks) cultures to ensure stable expression of native or heterologously-expressed nAChR as previously described (see Lukas, R. J.; Fryer, J. D.; Eaton, J. B.; L., G. C., Some methods for studies of nicotinic acetylcholine receptor pharmacology, in Nicotinic receptors and the Nervous System, Levine, E. D., Ed. CRC Press: Boca Raton, 2002; pp 3-27, incorporated herein by reference in its entirety). Cells were passaged once weekly by splitting just-confluent cultures 1/300 (TE671/RD), 1/5 (SH-SY5Y), or 1/20 (transfected SH-EP1) in serum-supplemented medium to maintain log-phase growth.
# (§2) After cells had adhered (generally overnight, but no sooner than 4 h later), the medium was removed and replaced with 250 μL per well of complete medium supplemented with ˜350,000 cpm of ^86Rb^+ (PerkinElmer Life and Analytical Sciences, Boston, Mass.) and counted at 40% efficiency using Cerenkov counting (TriCarb 1900 liquid scintillation analyzer[…]; PerkinElmer Life Sciences).
# (§3) After at least 4 h and typically overnight, ^86Rb^+ efflux was measured using the “flip-plate” technique. See Lukas, R. J.; Fryer, J. D.; Eaton, J. B.; L., G. C., Some methods for studies of nicotinic acetylcholine receptor pharmacology, in Nicotinic receptors and the Nervous System, Levine, E. D., Ed. CRC Press: Boca Raton, 2002; pp 3-27, incorporated herein by reference in its entirety). Briefly, after aspiration of the bulk of ^86Rb^+ loading medium from each well of the “cell plate,” each well containing cells was rinsed 3× with 2 mL of fresh ^86Rb^+ efflux buffer (130 mM NaCl, 5.4 mM KCl, 2 mM CaCl2, 5 mM glucose, 50 mM HEPES, pH 7.4) to remove extracellular ^86Rb^+. Following removal of residual rinse buffer by aspiration, the flip-plate technique was used again to simultaneously introduce 1.5 mL of fresh efflux buffer containing drugs of choice at indicated final concentrations from a 24-well “efflux/drug plate” into the wells of the cell plate. After a 5 min incubation, the solution was “flipped” back into the efflux/drug plate, and any remaining buffer in the cell plate was removed by aspiration. Cells remaining in the cell plate were lysed and suspended by addition of 1.5 mL of 0.1 M NaOH, 0.1% sodium dodecyl sulfate to each well.
# (§4) Similarly, the sum of ^86Rb^+ in cell plates and efflux/drug plates also determined the efficiency of ^86Rb^+ loading (the percentage of applied ^86Rb^+ actually loaded into cells).
# (§5) Specific efflux was then taken as the difference in control samples between total and non-specific ^86Rb^+ efflux. Any intrinsic agonist activity of test drugs was ascertained using samples containing test drug only at different concentrations and was normalized, after subtraction of non-specific efflux, to specific efflux in test drug-free, control samples.
# [1] = target: T2, human DA transporters [(h)DAT] (Homo sapiens, UniProt Q01959); assay: Inhibition of [3H]dopamine uptake into HEK293 cells stably expressing hDAT; assay type: cell-based
# T2 construct: expressed in transfected cells; host or cells: HEK-293
# Text: as §1
# (§6) See, for example, Damaj, M. I.; Carroll, F. I.; Eaton, J. B.; Navarro, H. A.; Blough, B. E.; Mirza, S.; Lukas, R. J.; Martin, B. R., Mol. Pharmacol. 2004, 66, (3), 675-682 and Eshleman, A. J.; Carmolli, M.; Cumbay, M.; Martens, C. R.; Neve, K. A.; Janowsky, A., J. Pharmacol. Exp. Ther. 1999, 289, (2), 877-885, both incorporated by reference herein in their entireties.
# [2] = target: T3, 5HT transporters [(h)SERT] (Homo sapiens, UniProt P31645); assay: Inhibition of [3H]serotonin uptake into HEK293 cells stably expressing hSERT; assay type: cell-based
# T3 construct: expressed in transfected cells; host or cells: HEK-293
# Text: as §1, §6
# [3] = target: T4, muscle-type nAChR (α1β1γδ- or α1*-nAChR) (Homo sapiens, UniProt P02708+P07510+P11230+Q07001); assay: 86Rb+ efflux nAChR functional assay, TE671/RD cells; assay type: cell-based; settings: parentheses = S.E.M. as multiplication/division factor
# T4 construct: Cells of the TE671/RD line naturally expresses muscle-type nAChR; endogenous in cells; host or cells: TE671/RD cells
# Text: as §1, §2, §3, §4, §5
# α4β2-nAChR = target: T5, α4β2-nAChR (Homo sapiens, UniProt P17787+P43681); assay: 86Rb+ efflux nAChR functional assay, SH-EP1-hα4β2 cells; assay type: cell-based
# T5 construct: expressed in transfected cells; host or cells: SH-EP1 epithelial cells (SH-EP1-hα4β2)
# Text: as §1, §2, §3, §4, §5
# [4] = test system: Male Institute of Cancer Research (ICR) mice; assay: Locomotor activity, antagonism of nicotine effect; assay type: in vivo; settings: for AD50 Locomotion: pretreatment 15 min before nicotine […] s.c.; for ED50: Mus musculus, pretreatment 15 min before nicotine 1.5 mg/kg s.c., read-out: AD50 Locomotion
# Text: Animals: Male Institute of Cancer Research (ICR) mice (weighing 20-25 g) obtained from Harlan (Indianapolis, Ind.) were used throughout the study. Animals were housed in an Association for Assessment and Accreditation of Laboratory Animal Care-approved facility, were placed in groups of six, and had free access to food and water. Studies were approved by the Institutional Animal Care and Use Committee of Virginia Commonwealth University.
# Locomotor Activity: Mice were placed into individual Omnitech photocell activity cages (28×16.5 cm; Omnitech Electronics, Columbus, Ohio) 5 min after subcutaneous administration of either 0.9% saline or nicotine (1.5 mg/kg). Interruptions of the photocell beams (two banks of eight cells each) were then recorded for the next 10 min. Data were expressed as the number of photocell interruptions.
# [5] = nAChR inhibition IC50 α1*β1, EC80-EC90 carbamylcholine
# [6] = EC80-EC90 carbamylcholine, SH-EP1-hα4β2, parentheses = S.E.M. as multiplication/division factor, read-out: nAChR inhibition IC50 α4β2
# [7] = HEK293-hDAT, mean ± standard error of three independent experiments, read-out: monoamine uptake inhibition IC50 [3H]DA
# [8] = HEK293-hSERT, mean ± standard error of three independent experiments, read-out: monoamine uptake inhibition IC50 [3H]5HT
# [9] = EC80-EC90 carbamylcholine, read-out: nAChR inhibition IC50 α1*β1
# T2 sequence (Q01959 whole entry): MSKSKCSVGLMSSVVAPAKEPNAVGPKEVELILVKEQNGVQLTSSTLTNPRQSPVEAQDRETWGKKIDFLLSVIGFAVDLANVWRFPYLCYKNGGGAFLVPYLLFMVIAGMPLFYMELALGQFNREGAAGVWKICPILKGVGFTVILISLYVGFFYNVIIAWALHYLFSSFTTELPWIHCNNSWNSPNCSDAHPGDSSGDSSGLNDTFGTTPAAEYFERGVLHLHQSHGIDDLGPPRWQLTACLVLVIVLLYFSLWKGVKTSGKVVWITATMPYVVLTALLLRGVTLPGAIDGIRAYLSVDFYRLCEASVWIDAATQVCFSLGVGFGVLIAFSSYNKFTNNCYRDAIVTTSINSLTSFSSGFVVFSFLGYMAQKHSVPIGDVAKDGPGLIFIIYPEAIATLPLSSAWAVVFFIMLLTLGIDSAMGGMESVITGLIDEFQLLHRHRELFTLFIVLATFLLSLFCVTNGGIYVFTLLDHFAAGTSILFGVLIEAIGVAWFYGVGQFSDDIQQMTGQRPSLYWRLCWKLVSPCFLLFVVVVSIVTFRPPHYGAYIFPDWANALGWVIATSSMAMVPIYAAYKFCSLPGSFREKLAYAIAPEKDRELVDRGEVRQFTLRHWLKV
# T4 sequence (P02708 21-457): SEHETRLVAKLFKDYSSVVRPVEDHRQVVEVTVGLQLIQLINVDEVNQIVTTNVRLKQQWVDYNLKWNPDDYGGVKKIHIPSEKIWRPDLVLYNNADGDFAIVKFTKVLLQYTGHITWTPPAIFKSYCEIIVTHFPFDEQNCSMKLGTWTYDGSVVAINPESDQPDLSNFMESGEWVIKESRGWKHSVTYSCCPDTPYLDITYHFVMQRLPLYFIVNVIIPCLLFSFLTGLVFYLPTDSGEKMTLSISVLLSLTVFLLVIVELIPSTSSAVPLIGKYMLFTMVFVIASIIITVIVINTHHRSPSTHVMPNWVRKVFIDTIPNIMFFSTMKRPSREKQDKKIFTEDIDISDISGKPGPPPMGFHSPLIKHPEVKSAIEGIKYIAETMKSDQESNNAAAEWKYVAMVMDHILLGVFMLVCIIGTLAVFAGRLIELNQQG
# T4 sequence (P11230 24-501): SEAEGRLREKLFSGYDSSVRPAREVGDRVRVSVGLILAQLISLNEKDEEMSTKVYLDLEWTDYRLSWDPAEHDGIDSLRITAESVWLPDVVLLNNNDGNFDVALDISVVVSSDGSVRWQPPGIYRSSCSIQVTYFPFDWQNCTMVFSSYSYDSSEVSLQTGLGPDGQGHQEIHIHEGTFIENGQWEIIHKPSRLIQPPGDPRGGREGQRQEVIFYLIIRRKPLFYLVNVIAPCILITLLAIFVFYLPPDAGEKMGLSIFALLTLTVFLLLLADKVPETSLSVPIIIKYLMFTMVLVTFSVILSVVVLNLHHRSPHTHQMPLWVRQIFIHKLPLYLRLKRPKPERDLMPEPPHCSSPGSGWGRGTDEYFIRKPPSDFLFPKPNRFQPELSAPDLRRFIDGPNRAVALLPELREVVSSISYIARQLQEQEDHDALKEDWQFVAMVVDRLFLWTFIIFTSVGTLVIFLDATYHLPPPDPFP
# T4 sequence (P07510 23-517): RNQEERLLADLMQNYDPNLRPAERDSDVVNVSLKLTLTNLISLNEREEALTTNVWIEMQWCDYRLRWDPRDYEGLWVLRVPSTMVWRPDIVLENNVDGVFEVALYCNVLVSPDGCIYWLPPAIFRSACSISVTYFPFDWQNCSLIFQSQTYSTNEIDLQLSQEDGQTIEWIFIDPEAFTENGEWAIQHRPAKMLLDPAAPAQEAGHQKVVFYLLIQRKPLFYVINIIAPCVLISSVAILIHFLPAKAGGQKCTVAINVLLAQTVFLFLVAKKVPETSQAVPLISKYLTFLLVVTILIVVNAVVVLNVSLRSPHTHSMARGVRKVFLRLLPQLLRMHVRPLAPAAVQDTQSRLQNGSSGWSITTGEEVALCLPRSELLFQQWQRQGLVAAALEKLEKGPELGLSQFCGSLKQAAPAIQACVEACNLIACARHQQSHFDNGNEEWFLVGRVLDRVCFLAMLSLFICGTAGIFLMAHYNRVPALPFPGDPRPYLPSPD
# T4 sequence (Q07001 22-517): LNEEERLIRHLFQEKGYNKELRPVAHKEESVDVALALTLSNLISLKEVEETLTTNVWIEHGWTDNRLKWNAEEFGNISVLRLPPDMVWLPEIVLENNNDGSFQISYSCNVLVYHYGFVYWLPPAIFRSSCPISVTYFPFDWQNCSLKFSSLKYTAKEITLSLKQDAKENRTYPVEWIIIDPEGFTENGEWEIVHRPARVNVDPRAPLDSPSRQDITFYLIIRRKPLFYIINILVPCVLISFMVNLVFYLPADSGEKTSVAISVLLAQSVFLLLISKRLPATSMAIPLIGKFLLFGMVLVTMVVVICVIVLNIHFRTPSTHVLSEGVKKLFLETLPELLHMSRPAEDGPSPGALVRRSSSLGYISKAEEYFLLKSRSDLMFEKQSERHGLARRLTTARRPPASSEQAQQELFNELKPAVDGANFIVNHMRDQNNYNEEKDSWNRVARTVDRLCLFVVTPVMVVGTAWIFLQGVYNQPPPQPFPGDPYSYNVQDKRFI
# T3 sequence (P31645 whole entry): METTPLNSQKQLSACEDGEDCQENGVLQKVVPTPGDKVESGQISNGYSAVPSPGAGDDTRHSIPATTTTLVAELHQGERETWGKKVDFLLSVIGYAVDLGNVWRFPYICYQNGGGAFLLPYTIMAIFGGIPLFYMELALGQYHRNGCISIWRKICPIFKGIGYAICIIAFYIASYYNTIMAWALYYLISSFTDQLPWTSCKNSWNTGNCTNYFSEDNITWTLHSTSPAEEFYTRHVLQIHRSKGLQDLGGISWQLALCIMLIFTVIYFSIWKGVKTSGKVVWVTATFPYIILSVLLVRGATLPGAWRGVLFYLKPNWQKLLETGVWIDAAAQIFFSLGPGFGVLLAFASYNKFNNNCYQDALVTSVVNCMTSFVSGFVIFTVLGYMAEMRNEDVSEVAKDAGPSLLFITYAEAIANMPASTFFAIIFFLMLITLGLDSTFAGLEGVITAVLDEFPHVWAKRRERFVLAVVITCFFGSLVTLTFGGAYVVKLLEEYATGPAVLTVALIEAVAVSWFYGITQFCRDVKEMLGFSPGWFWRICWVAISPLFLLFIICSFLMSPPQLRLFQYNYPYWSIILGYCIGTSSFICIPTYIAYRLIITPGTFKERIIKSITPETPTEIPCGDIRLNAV
# T5 sequence (P43681 29-627 limits assumed): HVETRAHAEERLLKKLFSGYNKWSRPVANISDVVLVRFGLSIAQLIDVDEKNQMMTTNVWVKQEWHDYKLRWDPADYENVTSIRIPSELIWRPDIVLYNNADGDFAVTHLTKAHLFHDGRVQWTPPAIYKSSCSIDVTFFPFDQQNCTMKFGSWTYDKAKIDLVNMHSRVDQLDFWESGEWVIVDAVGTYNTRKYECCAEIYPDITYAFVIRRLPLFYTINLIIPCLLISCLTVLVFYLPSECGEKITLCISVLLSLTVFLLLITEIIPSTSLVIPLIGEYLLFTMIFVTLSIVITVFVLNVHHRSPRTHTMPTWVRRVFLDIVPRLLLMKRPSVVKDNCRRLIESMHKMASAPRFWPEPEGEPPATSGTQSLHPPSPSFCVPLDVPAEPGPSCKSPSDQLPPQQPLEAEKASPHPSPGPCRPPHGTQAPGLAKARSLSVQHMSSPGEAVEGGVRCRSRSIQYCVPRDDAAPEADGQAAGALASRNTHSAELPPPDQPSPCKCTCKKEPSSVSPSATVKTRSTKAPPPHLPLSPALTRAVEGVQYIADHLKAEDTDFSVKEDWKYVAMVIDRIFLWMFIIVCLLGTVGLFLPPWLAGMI
# T5 sequence (P17787 26-502): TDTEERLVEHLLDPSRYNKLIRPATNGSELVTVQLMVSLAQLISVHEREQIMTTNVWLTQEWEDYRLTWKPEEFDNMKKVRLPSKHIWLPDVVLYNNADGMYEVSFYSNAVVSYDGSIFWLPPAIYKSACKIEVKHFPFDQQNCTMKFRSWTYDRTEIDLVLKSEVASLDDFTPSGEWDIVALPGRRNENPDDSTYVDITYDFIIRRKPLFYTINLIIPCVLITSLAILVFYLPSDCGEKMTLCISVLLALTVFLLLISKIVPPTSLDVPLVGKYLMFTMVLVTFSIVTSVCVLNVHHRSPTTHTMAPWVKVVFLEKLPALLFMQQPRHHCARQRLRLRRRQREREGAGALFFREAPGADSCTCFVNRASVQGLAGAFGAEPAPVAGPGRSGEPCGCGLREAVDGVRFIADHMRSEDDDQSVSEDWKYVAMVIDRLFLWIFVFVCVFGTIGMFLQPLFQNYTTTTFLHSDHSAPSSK
# T1 sequence (P43681 29-627 limits assumed): as the sequence (P43681 29-627 limits assumed) above
# T1 sequence (P30926 22-498): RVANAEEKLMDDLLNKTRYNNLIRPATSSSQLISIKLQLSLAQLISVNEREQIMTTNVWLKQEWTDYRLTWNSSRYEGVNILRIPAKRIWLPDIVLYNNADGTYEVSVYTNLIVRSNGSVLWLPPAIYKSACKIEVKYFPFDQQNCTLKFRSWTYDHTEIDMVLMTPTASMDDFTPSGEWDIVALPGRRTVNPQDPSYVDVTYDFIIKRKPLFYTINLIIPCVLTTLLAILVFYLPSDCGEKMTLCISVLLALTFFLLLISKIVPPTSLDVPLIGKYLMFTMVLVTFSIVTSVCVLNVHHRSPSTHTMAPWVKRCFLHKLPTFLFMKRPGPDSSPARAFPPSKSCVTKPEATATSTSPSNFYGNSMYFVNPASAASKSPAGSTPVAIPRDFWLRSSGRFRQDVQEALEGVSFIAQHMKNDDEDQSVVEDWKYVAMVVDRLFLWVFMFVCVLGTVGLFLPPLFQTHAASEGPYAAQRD
Structure (SMILES),IC50 (α4β4-nAChR),IC50 [1],selectivity for inhibition of DA uptake over α4β2-nAChR [1],IC50 [2],"IC50 [3, 5]",IC50 (α4β2-nAChR; [6]),AD50 Locomotion [4],"IC50 [1, 7]","IC50 [2, 8]",ED50 [4],IC50 (α4β2-nAChR),"IC50 [3, 9]",selectivity for inhibition of α4β2-nAChR over DA uptake inhibition (α4β2-nAChR),selectivity for α4β2-nAChR over other nAChR subtypes (α4β2-nAChR)
"CC1NC(C)(C)COC1(O)c1ccc(Cl)c(Cl)c1 (racemic) [Compound 4n, 2-(3,4-Dichlorophenyl)-3,5,5-trimethylmorpholin-2-ol]",14 µM,0.07 µM,> 285 fold,0.36 µM,7.2 µM,20 µM,IA (IA: AD50 > 15 mg/kg),,,,,,,
"CC1NC(C)(C)COC1(O)c1cc(Cl)cc(Cl)c1 (racemic) [Compound 4p, 2-(3,5-Dichlorophenyl)-3,5,5-trimethylmorpholin-2-ol]",18 µM,,,,7.2 µM,11 µM,,8.25 ± 0.72 µM,> 10 µM,1.9 mg/kg,,,,
"C[C@@H]1NC(C)(C)CO[C@@]1(O)c1ccccc1 [Compound 4b, (2S,3S)-2-Phenyl-3,5,5-trimethylmorpholin-2-ol]",92 µM,,,,> 100 µM,6.4 µM,IA (IA: AD50 > 15 mg/kg),1.06 ± 0.03 µM,> 10 µM,,< 10 µM,,,
"C[C@@H]1NC(C)(C)CO[C@@]1(O)c1cccc(F)c1 [Compound 4c, (2S,3S)-2-(3-Fluorophenyl)-3,5,5-trimethylmorpholin-2-ol]",> 100 µM,,,> 10 µM,> 100 µM,1.3 µM,IA (IA: AD50 > 15 mg/kg),1.38 ± 0.36 µM,,,,,,
"C[C@@H]1NC(C)(C)CO[C@@]1(O)c1cccc(Br)c1 [Compound 4d, (2S,3S)-2-(3-Bromophenyl)-3,5,5-trimethylmorpholin-2-ol]",30 µM,,,> 10 µM,5.9 to 19 µM,0.55 µM,2.6 mg/kg,3.34 ± 0.68 µM,,2.6 mg/kg,,18 µM,~6 fold,
"Cc1cccc([C@]2(O)OCC(C)(C)N[C@H]2C)c1 [Compound 4e, (2S,3S)-2-(m-Tolyl)-3,5,5-trimethylmorpholin-2-ol]",64 µM,,,,> 33 µM,6 µM,IA (IA: AD50 > 15 mg/kg),2.6 ± 0.4 µM,> 10 µM,,,33 µM,,
"COc1cccc([C@]2(O)OCC(C)(C)N[C@H]2C)c1 [Compound 4f, (2S,3S)-2-(3-Methoxyphenyl)-3,5,5-trimethylmorpholin-2-ol]",> 100 µM,,,,,10 µM,IA (IA: AD50 > 15 mg/kg),16 µM,> 10 µM,,< 10 µM,49 µM,,
"C[C@@H]1NC(C)(C)CO[C@@]1(O)c1cccc([N+](=O)[O-])c1 [Compound 4g, (2S,3S)-2-(3-Nitrophenyl)-3,5,5-trimethylmorpholin-2-ol]",80 µM,,,,,4.8 µM,IA (IA: AD50 > 15 mg/kg),12 µM,> 10 µM,,< 10 µM,96 µM,,~3 fold
"C[C@@H]1NC(C)(C)CO[C@@]1(O)c1ccc(F)cc1 [Compound 4h, (2S,3S)-2-(4-Fluorophenyl)-3,5,5-trimethylmorpholin-2-ol]",> 100 µM,,,,,12 µM,IA (IA: AD50 > 15 mg/kg),4.2 ± 0.7 µM,> 10 µM,,,69 µM,,
"C[C@@H]1NC(C)(C)CO[C@@]1(O)c1ccc(Cl)cc1 [Compound 4i, (2S,3S)-2-(4-Chlorophenyl)-3,5,5-trimethylmorpholin-2-ol]",33 µM,,,,,9.2 µM,IA (IA: AD50 > 15 mg/kg),0.285 µM,4.6 ± 0.9 µM,,,19 µM,,
"Cc1ccc([C@]2(O)OCC(C)(C)N[C@H]2C)cc1 [Compound 4j, (2S,3S)-3,5,5-Trimethyl-2-(4-methylphenyl)morpholin-2-ol]",62 µM,,,,,12 µM,IA (IA: AD50 > 15 mg/kg),0.832 ± 0.26 µM,> 10 µM,,,20 µM,,
"COc1ccc([C@]2(O)OCC(C)(C)N[C@H]2C)cc1 [Compound 4k, (2S,3S)-2-(4-Methoxyphenyl)-3,5,5-trimethylmorpholin-2-ol]",72 µM,,,> 10 µM,,27 µM,IA (IA: AD50 > 15 mg/kg),> 10 µM,,,,25 µM,,
"C[C@@H]1NC(C)(C)CO[C@@]1(O)c1ccc(-c2ccccc2)cc1 [Compound 4l, (2S,3S)-2-Biphenyl-4-yl-3,5,5-trimethylmorpholin-2-ol]",8.1 µM,> 10 µM,,> 10 µM,5.9 to 19 µM,1.8 µM,IA (IA: AD50 > 15 mg/kg),,,,< 10 µM,5.9 µM,,
"C[C@@H]1NC(C)(C)CO[C@@]1(O)c1ccc(F)c(F)c1 [Compound 4m, (2S,3S)-2-(3,4-Difluorophenyl)-3,5,5-trimethylmorpholin-2-ol]",> 100 µM,,,,,12 µM,IA (IA: AD50 > 15 mg/kg),2.14 ± 0.18 µM,> 10 µM,,,36 µM,,
